Laboratory results: patent US9150546B2, “Triazine derivative and pharmaceutical composition comprising the same” (SHIONOGI & CO., LTD., priority 2009, dated 2015)

The compounds below were run against human P2X3 receptor (Homo sapiens (Human), UniProt P56373) (assay: P2X3 receptor inhibition, ATP-evoked Fluo-3 fluorescence (FDSS 3000)). Conditions: C6BU-1 cell transfected with human P2X3 receptor gene.
Assay type: cell-based

human P2X3 receptor, sequence (P56373 whole entry): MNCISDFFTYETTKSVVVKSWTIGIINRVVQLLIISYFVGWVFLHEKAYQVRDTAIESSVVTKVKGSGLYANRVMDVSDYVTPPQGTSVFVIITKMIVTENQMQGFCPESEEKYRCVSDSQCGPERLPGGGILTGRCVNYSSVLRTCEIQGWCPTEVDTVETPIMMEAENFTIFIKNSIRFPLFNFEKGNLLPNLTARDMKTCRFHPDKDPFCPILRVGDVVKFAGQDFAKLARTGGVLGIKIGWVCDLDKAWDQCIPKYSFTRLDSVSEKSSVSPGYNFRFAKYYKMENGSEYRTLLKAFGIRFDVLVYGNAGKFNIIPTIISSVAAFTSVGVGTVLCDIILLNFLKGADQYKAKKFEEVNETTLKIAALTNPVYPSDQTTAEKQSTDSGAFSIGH

SMILES	IC50
O=c1nc(Nc2ccc(OC(F)(F)F)cc2)n(Cc2ccc(Cl)cc2)c(=O)n1CCO [I-383]	532 nM
CC(C)Oc1ccc(/N=c2\[nH]c(=O)n(C[C@H](C)C(=O)O)c(=O)n2Cc2ccc(Cl)cc2)cc1F [I-456]	8 nM
CCOc1ccc(/N=c2\[nH]c(=O)n(CC(C)(C)C(=O)OC)c(=O)n2Cc2ccc(Cl)cc2)cc1C [I-462]	4 nM
CC(C)Oc1ccc(Nc2nc(=O)n(CC(=O)N(C)C)c(=O)n2Cc2ccc(Cl)cc2)cc1F [I-293]	351 nM
CCOc1ccc(/N=c2\[nH]c(=O)n(C[C@H](C)C(=O)O)c(=O)n2Cc2ccc(Cl)cc2)cc1 [I-535]	52 nM
Cc1cc(/N=c2\[nH]c(=O)n(C[C@H](C)C(=O)O)c(=O)n2Cc2ccc(Cl)cc2)ccc1OC(C)C [I-538]	16 nM
CC(C)Oc1ccc(Nc2nc(=O)n(CCOC3CCCCO3)c(=O)n2Cc2ccc(Cl)cc2)cc1Cl (stereo not drawn) [I-350]	10 nM
COC(=O)C[C@H](C)n1c(=O)[nH]/c(=N\c2ccc(OC(C)C)c(C)c2)n(Cc2ccc(Cl)cc2)c1=O [I-524]	60 nM
CCOc1ccc(Nc2nc(=O)n(C[C@H](C)C(=O)OC)c(=O)n2Cc2ccc(Cl)cc2)cc1Cl [I-533]	10 nM
COC(=O)[C@@H](C)Cn1c(=O)[nH]/c(=N\c2ccc(OC(C)C)c(C)c2)n(CC2CCCCC2)c1=O [I-555]	13 nM
CCOc1nc(=O)n(Cc2ccc(Cl)cc2)/c(=N/c2ccc(OC(C)C)c(Cl)c2)[nH]1 [II-014]	254 nM
O=c1nc(Nc2ccc(OC(F)F)cc2)n(Cc2ccc(Cl)cc2)c(=O)n1CCO [I-329]	266 nM
COC(=O)[C@@H](C)Cn1c(=O)[nH]/c(=N\c2ccc3oc(C)cc3c2)n(Cc2ccc(Cl)cc2)c1=O [I-534]	18 nM
COC(=O)C(C)(C)Cn1c(=O)[nH]/c(=N\c2ccc(O)c(Cl)c2)n(Cc2ccc(Cl)cc2)c1=O [I-426]	211 nM
CCOC(=O)CCn1c(=O)nc(Nc2ccc(OC(C)C)c(F)c2)n(Cc2ccc(Cl)cc2)c1=O [I-356]	12 nM
CC(C)Oc1ccc(Nc2nc(=O)n(CCN(C)C)c(=O)n2Cc2ccc(Cl)cc2)cc1F [I-272]	180 nM
CC(C)Oc1ccc(Nc2nc(=O)n(CCO)c(=O)n2Cc2ccc([N+](=O)[O-])cc2)cc1F [I-347]	251 nM
Cc1ccc(/N=c2\[nH]c(=O)n(CC(C)(C)C(=O)O)c(=O)n2Cc2ccc(Cl)cc2)cc1C [I-464]	564 nM
CC(C)Oc1ccc(Nc2nc(=O)n(CCO)c(=O)n2Cc2ccc(Cl)cc2)cc1Cl [I-351]	15 nM
CC(C)Oc1ccc(Nc2nc(OCC(CO)CO)nc(=O)n2Cc2ccc(Cl)cc2)cc1F [II-008]	943 nM
CC(C)Oc1ccc(/N=c2\[nH]c(=O)n(CC(=O)NCCO)c(=O)n2Cc2ccc(Cl)cc2)cc1Cl [I-437]	6 nM
COC(=O)C(C)(C)Cn1c(=O)[nH]/c(=N\c2ccc3[nH]ccc3c2)n(Cc2ccc(Cl)cc2)c1=O [I-470]	80 nM
Cc1cc2cc(/N=c3\[nH]c(=O)n(C[C@@H](C)C(=O)O)c(=O)n3Cc3ccc(Cl)cc3)ccc2o1 [I-564]	48 nM
Cc1cc2cc(/N=c3\[nH]c(=O)[nH]c(=O)n3Cc3ccc(Cl)cc3)ccc2o1 [I-501]	191 nM
Cc1nc2ccc(/N=c3\[nH]c(=O)n(CC(C)(C)C(=O)O)c(=O)n3Cc3ccc(Cl)cc3)cc2o1 [I-496]	125 nM
CSc1cccc(Nc2nc(=O)n(C(C)C)c(=O)n2Cc2ccc(F)cc2)c1 [I-130]	953 nM

SMILES	IC50
COC(=O)Cn1c(=O)nc(Nc2ccc(OC(C)C)c(F)c2)n(Cc2ccc(Cl)cc2)c1=O [I-338]	53 nM
CC(C)Oc1ccc(/N=c2\[nH]c(=O)n(CC(=O)NCC(=O)O)c(=O)n2Cc2ccc(Cl)cc2)cc1F [I-400]	44 nM
CC(C)n1c(=O)nc(Nc2cccc(C(F)(F)F)c2)n(Cc2ccc(F)cc2)c1=O [I-126]	689 nM
CC(C)Oc1ccc(Nc2nc(=O)n(C(F)F)c(=O)n2Cc2ccc(Cl)cc2)cc1F [I-310]	389 nM
CC(C)Oc1ccc(Nc2nc(=O)n(C(C)C)c(=O)n2Cc2ccc(F)cc2)cc1C#N [I-227]	970 nM
CC(C)Oc1ccc(/N=c2\[nH]c(=O)n(Cc3ccc(C(=O)O)cc3)c(=O)n2Cc2ccc(Cl)cc2)cc1F [I-445]	8 nM
CCOc1ccc(/N=c2\[nH]c(=O)n(C[C@@H](C)C(=O)OC)c(=O)n2Cc2ccc(Cl)cc2)cc1 [I-480]	12 nM
CCOC(=O)C1(Cn2c(=O)[nH]/c(=N\c3ccc(OC(C)C)c(F)c3)n(Cc3ccc(Cl)cc3)c2=O)CC1 [I-422]	6 nM
CC(C)Oc1ccc(Nc2nc(=O)n(CC(CO)CO)c(=O)n2Cc2ccc(Cl)cc2)cc1 [I-368]	41 nM
COC(=O)C[C@@H](C)n1c(=O)[nH]/c(=N\c2ccc(OC(C)C)c(F)c2)n(Cc2ccc(Cl)cc2)c1=O [I-560]	7 nM
CC(C)Oc1ccc(/N=c2\[nH]c(=O)n(CC(C)(C)C(=O)O)c(=O)n2CC2CCCCC2)cc1Cl [I-551]	34 nM
O=c1nc(Nc2cccc(OC(F)(F)F)c2)n(Cc2ccc(Cl)cc2)c(=O)n1CCO [I-309]	357 nM
COC(=O)C[C@@H](C)n1c(=O)[nH]/c(=N\c2ccc(OC(C)C)c(C)c2)n(Cc2ccc(Cl)cc2)c1=O [I-557]	19 nM
COC(=O)C(C)(C)Cn1c(=O)[nH]/c(=N\c2ccc(OC(C)C)c(Cl)c2)n(CC2CCCCC2)c1=O [I-547]	11 nM
Cc1cc2cc(/N=c3\[nH]c(=O)n(C[C@H](C)C(=O)O)c(=O)n3Cc3ccc(Cl)cc3)ccc2o1 [I-540]	27 nM
CC(C)Oc1ccc(Nc2nc(=O)n(CCC(=O)NCCO)c(=O)n2Cc2ccc(Cl)cc2)cc1F [I-352]	36 nM
CC(C)Oc1ccc(/N=c2\[nH]c(=O)n(Cc3cccc(C(=O)O)c3)c(=O)n2Cc2ccc(Cl)cc2)cc1F [I-451]	16 nM
CCCOc1ccc(Nc2nc(=O)n(CCO)c(=O)n2Cc2ccc(Cl)cc2)cc1F [I-321]	33 nM
CNC(=O)Cn1c(=O)[nH]/c(=N\c2ccc(OC(C)C)c(Cl)c2)n(Cc2ccc(Cl)cc2)c1=O [I-436]	8 nM
Cc1ccc(Cn2c(Nc3ccc4[nH]ccc4c3)nc(=O)n(C(C)C)c2=O)cc1 [I-123]	815 nM
CC(C)(Cn1c(=O)[nH]/c(=N\c2cccc(OC(F)F)c2)n(Cc2ccc(Cl)cc2)c1=O)C(=O)O [I-448]	388 nM
CC(C)Oc1ccc(Nc2nc(=O)n(C(CO)CO)c(=O)n2Cc2ccc(Cl)cc2)cc1F [I-286]	277 nM
CC(C)Cc1ccc(Nc2nc(=O)n(CCO)c(=O)n2Cc2ccc(Cl)cc2)cc1 [I-328]	124 nM
Cc1ccc(Cn2c(=O)n(CCCC(=O)O)c(=O)[nH]/c2=N\c2ccc(OC(C)C)c(C)c2)cc1 [I-525]	54 nM
CCOC(=O)CCn1c(=O)nc(Nc2ccc(OC(C)C)c(Cl)c2)n(CC2CCCCC2)c1=O [I-380]	34 nM
CCOC(=O)CCCn1c(=O)[nH]/c(=N\c2ccc3oc(C)cc3c2)n(Cc2ccc(Cl)cc2)c1=O [I-504]	15 nM

SMILES	IC50
CC(C)Oc1ccc(Nc2nc(=O)n(CCN)c(=O)n2Cc2ccc(Cl)cc2)cc1F [I-290]	266 nM
CC(C)Oc1ccc(/N=c2\[nH]c(N3CCCC3=O)nc(=O)n2Cc2ccc(Cl)cc2)cc1Cl [II-012]	568 nM
CCOc1ccc(/N=c2\[nH]c(=O)n(CC(C)(C)C(=O)O)c(=O)n2Cc2ccc(Cl)cc2)cc1C [I-465]	57 nM
COC(=O)C(C)(C)Cn1c(=O)[nH]/c(=N\c2ccc(OC(C)C)c(F)c2)n(Cc2ccc(Cl)cc2)c1=O [I-403]	15 nM
CC(C)Oc1ccc(/N=c2\n(C)c(=O)n(CCOC3CCCCO3)c(=O)n2Cc2ccc(Cl)cc2)cc1F (stereo not drawn) [I-546]	459 nM
CCOc1ccc(/N=c2\[nH]c(=O)n(CC(C)(C)C(=O)O)c(=O)n2Cc2ccc(Cl)cc2)cc1Cl [I-446]	20 nM
CC(C)n1c(=O)nc(Nc2ccc(C(=O)NCC3CC3)cc2)n(Cc2ccc(Cl)cc2)c1=O [I-258]	683 nM
Cc1ccc(Cn2c(=O)n(CCCC(=O)O)c(=O)[nH]/c2=N\c2ccc(OC(C)C)c(Cl)c2)cc1 [I-519]	12 nM
CCOc1ccc(/N=c2\[nH]c(=O)n(C[C@@H](C)C(=O)OC)c(=O)n2Cc2ccc(Cl)cc2)cc1C [I-481]	12 nM
CC(C)Oc1ccc(/N=c2\[nH]c(=O)n(CC(C)(C)C(=O)O)c(=O)n2Cc2ccc(Cl)cc2)cc1 [I-541]	58 nM
COc1ccc(Nc2nc(=O)n(CCO)c(=O)n2Cc2ccc(Cl)cc2)cc1F [I-305]	946 nM
CC(C)(Cn1c(=O)[nH]/c(=N\c2ccc(O)c(Cl)c2)n(Cc2ccc(Cl)cc2)c1=O)C(=O)O [I-429]	779 nM
Cc1cc2cc(/N=c3\[nH]c(=O)n(CC(C)(C)C(=O)O)c(=O)n3Cc3ccc(Cl)cc3)ccc2o1 [I-491]	27 nM
O=c1nc(Nc2ccc(Cl)c(Cl)c2)n(Cc2ccc(Cl)cc2)c(=O)n1CCO [I-373]	185 nM
CC(C)Oc1ccc(/N=c2\[nH]c(=O)n(CCC(C)(C)C(=O)OCc3ccccc3)c(=O)n2Cc2ccc(Cl)cc2)cc1Cl [I-407]	27 nM
CC(C)Oc1ccc(Nc2nc(=O)n(CCNC(=O)NCCO)c(=O)n2Cc2ccc(Cl)cc2)cc1F [I-390]	67 nM
CC(C)Oc1ccc(Nc2nc(=O)n(CCCN)c(=O)n2Cc2ccc(Cl)cc2)cc1F [I-317]	137 nM
CC(C)n1c(=O)nc(Nc2ccc(C(=O)Nc3ccccc3)cc2)n(Cc2ccc(Cl)cc2)c1=O [I-266]	861 nM
CC(C)Oc1ccc(/N=c2\[nH]c(=O)n(C[C@@H](C)C(=O)O)c(=O)n2Cc2ccc(Cl)cc2)cc1Cl [I-460]	16 nM
COCCn1c(=O)nc(Nc2ccc(OC(C)C)c(F)c2)n(Cc2ccc(Cl)cc2)c1=O [I-280]	30 nM
O=c1nc(Nc2cccc(C(F)(F)F)c2)n(Cc2ccc(Cl)cc2)c(=O)n1CCO [I-313]	178 nM
CC(C)Oc1ccc(/N=c2\[nH]c(OCC(C)(C)C(=O)O)nc(=O)n2Cc2ccc(Cl)cc2)cc1Cl [II-010]	349 nM
Cc1ccc(Cn2c(=O)n(CC(=O)N[C@H](C)C(=O)O)c(=O)[nH]/c2=N\c2ccc(OC(C)C)c(F)c2)cc1 [I-417]	35 nM
O=c1nc(Nc2ccc(OC3CCOCC3)cc2)n(Cc2ccc(Cl)cc2)c(=O)n1CCO [I-324]	309 nM
COC(=O)C(C)(C)Cn1c(=O)[nH]/c(=N\c2cccc(OC(F)F)c2)n(Cc2ccc(Cl)cc2)c1=O [I-443]	207 nM
COC(=O)C[C@@H](C)n1c(=O)[nH]/c(=N\c2ccc(OC(C)C)c(Cl)c2)n(Cc2ccc(Cl)cc2)c1=O [I-556]	5 nM
